Key:
human GLP-1 receptor = molecular target: T1, human GLP-1 receptor (Homo sapiens, UniProt P43220); experiment: In vitro potency, AlphaScreen cAMP assay on membranes; format: biochemical; settings: cAMP formation, membranes of BHK467-12A cells
T1 construct: expressed in transfected cells; host or cells: BHK cells, clone FCW467-12A (parent line BHKTS13), membranes
Experimental: The purpose of this example is to test the activity, or potency, in vitro of, for example, the GLP-1 parent drugs of the prodrugs of the invention.
Purified plasma membranes from a stable transfected cell line, BHK467-12A (tk-ts13), expressing the human GLP-1 receptor were stimulated with the GLP-1 drug in question, and the potency of cAMP production was measured using the AlphaScreen™ cAMP Assay Kit from Perkin Elmer Life Sciences. The basic principle of The AlphaScreen Assay is a competition between endogenous cAMP and exogenously added biotin-cAMP. The capture of cAMP is achieved by using a specific antibody conjugated to acceptor beads.
A stable transfected cell line and a high expressing clone were selected for screening. The cells were grown at 5% CO2 in DMEM, 10% FCS, 1% Pen/Strep (Penicillin/Streptomycin) and preferably 0.5 (alternatively 1.0 mg/ml) of the selection marker G418.
Cells at approximate 80% confluence were washed twice with PBS and harvested with Versene (aqueous solution of the tetrasodium salt of ethylenediaminetetraacetic acid), centrifuged 5 min at 1000 rpm and the supernatant removed. The additional steps were all made on ice. The cell pellet was homogenised by the Ultrathurax for 20-30 s in 10 ml of Buffer 1 (20 mM Na-HEPES, 10 mM EDTA, pH=7.4), centrifuged 15 min at 20,000 rpm and the pellet resuspended in 10 ml of Buffer 2 (20 mM Na-HEPES, 0.1 mM EDTA, pH=7.4). The suspension was homogenised for 20-30 s and centrifuged 15 min at 20,000 rpm. Suspension in Buffer 2, homogenisation and centrifugation was repeated once and the membranes were resuspended in Buffer 2. The protein concentration was determined and the membranes stored at −80° C. until use.
The assay was performed in flat-bottom 96-well plates (Costar cat. no: 3693). The final volume per well was 50 μl.
AlphaScreen cAMP Assay Kit from Perkin Elmer Life Sciences (cat. No: 6760625M); containing Anti-cAMP Acceptor beads (10 U/μl), Streptavidin Donor beads (10 U/μl) and Biotinylated-cAMP (133 U/μl). […]

[1] = Pharmacokinetic study in minipigs after i.v. administration; format: in vivo, Göttingen minipigs; settings: iv, minipig
Experimental: The purpose of this study is to determine the pharmacokinetic (PK) profile in vivo of a prodrug of the invention (Example 4) and the corresponding parent drug (Example B2.2) after i.v. administration to minipigs, e.g. the prolongation of their time in the body and thereby their time of action. This is done in a PK study, where the terminal half-life of the compound in question is determined. By terminal half-life is generally meant the period of time it takes to halve a certain plasma concentration, measured after the initial distribution phase.
Threefemale Göttingen minipigs, obtained from Ellegaard Göttingen Minipigs (Dalmose, Denmark) approximately 6-8 months of age and weighing approximately 16-21 kg (prodrug pig 16.8 kg, drug pigs 21.3 and 21.1 kg), were used in the studies. The minipigs were housed individually and fed restrictedly once daily with SDS minipig diet (Special Diets Services, Essex, UK). […]
The prodrug of Example 4 and the corresponding drug of Example B2.2 were dissolved in 50 mM sodium phosphate, 145 mM sodium chloride, 0.05% polysorbate 80, pH 7.4 to a suitable concentration (for example, 169.6 nmol/ml for the prodrug). […] Individual plasma concentration-time profiles were analyzed by a non-compartmental model in WinNonlin v. […] Also, the resulting terminal half-lives (harmonic mean/h) were determined, if possible. […]

[2] = Prodrug half-life in vitro, buffer method; format: physicochemical; settings: 25 mM phosphate buffer pH 7.4, 37° C., 1.0 mg/mL; UPLC_A, or UPLC_B for compounds marked *; read-out: T½ in buffer (converted)
Summary of the method: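 Prodrug incubated at 1.0 mg/mL in 25 mM phosphate buffer (ionic strength 154 mM, pH 7.4) at 37° C, sampled over time. Prodrug and released parent quantified by UPLC peak areas; T½ derived as ln(2)/slope of linear fit of ln(% prodrug) versus time.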

[3] = Prodrug half-life in vitro, plasma method (minipig heparin plasma); format: in vitro ADME; settings: minipig heparin plasma 800 μL + 200 μL 200 mM phosphate pH 7.4, 37° C.; UPLC_A, or UPLC_B for compounds marked *; read-out: T½ in plasma (converted)
Experimental: The purpose of this example is to test the in vitro half-lives (T½) of the GLP-1 prodrugs of the invention, in comparison to conceptually different prodrugs. In what follows two in vitro methods are described, viz. a method conducted in buffer, and a method conducted in plasma.
The half life of the prodrug (T½) was calculated from the slope of a linear fit to the curve of ln(% prodrug (Y)) as a function of time (t), as follows: Y=÷αt+k Math. 1 T½=ln(2)/α Math. 2 Plasma Method Buffer: 200 mM Phosphate, pH 7.4 at 37° C.
NaH2PO4.2H2O (15.61 g, 100 mmol) was dissolved in milliQ water (approximately 450 mL) and adjusted to pH=7.44 at approximately 20° C. with concentrated NaOH (aq) and 1 M NaOH (aq). Water was added to 500.00 mL.
Serum: Minipig Serum, Heparin-Plasma
Fresh blood was tapped from minipig into 9 mL LH lithium heparin Vacuette tubes from Greiner bio-one (catalogue number 455084). After cooling on ice it was centrifuged (10 min, 4° C., 3000 rpm/1942G) and the supernatant isolated and kept at −18° C. before use.
100 nmol of the compound to be tested was dissolved in 200 μL buffer, added to 800 μL plasma (centrifuged), and incubated at 37° C. Samples (50 μL) were drawn at appropriate intervals into 150 μL absolute EtOH. After a short stirring the sample was centrifuged and the supernatant transferred to the UPLC vial (10 μL injection).
The % parent drug compared to prodrug formed as a function of time was evaluated by UPLC, and the half-life calculated, both in the same way as described above under the Buffer method.

T1 sequence (P43220 24-463): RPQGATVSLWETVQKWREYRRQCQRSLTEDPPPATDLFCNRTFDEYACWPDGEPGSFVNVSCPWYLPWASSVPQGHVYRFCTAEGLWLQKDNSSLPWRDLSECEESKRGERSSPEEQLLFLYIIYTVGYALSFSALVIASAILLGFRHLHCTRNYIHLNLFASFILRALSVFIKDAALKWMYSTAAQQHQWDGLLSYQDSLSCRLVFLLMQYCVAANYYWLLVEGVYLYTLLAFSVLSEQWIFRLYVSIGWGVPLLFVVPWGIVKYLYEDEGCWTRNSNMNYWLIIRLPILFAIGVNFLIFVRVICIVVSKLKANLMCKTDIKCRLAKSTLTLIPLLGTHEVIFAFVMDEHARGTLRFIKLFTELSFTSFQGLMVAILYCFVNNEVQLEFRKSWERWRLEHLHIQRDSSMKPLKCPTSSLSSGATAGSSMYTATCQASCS

Row | Compound | EC50 (human GLP-1 receptor) | half-life ([1]; female, Göttingen, plasma, parent drug given i.v. 3 nmol/kg, read-out: Terminal half-life (harmonic mean/h) (converted)) | half-life [2] | half-life [3] | half-life ([1]; in vivo, prodrug given i.v. 8 nmol/kg, half-life of the released parent drug, estimated from the bell-shaped curve, read-out: apparent terminal half-life of corresponding drug (estimated) (converted))
1 | CC[C@H](C)[C@H](NC(=O)[C@H](Cc1ccccc1)NC(=O)[C@H](CCC(=O)O)NC(=O)[C@H](CCCCNC(=O)COCCOCCNC(=O)COCCOCCNC(=O)CC[C@H](NC(=O)CCCCCCCCCOc1ccc(C(=O)O)cc1)C(=O)O)NC(=O)[C@H](C)NC(=O)[C@H](C)NC(=O)[C@H](CCC(N)=O)NC(=O)CNC(=O)[C@H](CCC(=O)O)NC(=O)[C@H](CC(C)C)NC(=O)[C@H](Cc1ccc(O)cc1)NC(=O)[C@H](CO)NC(=O)[C@H](CO)NC(=O)[C@@H](NC(=O)[C@H](CC(=O)O)NC(=O)[C@H](CO)NC(=O)[C@@H](NC(=O)[C@H](Cc1ccccc1)NC(=O)[C@@H](NC(=O)CNC(=O)[C@H](CCC(=O)O)NC(=O)[C@H](C)NC(=O)[C@@H](O)Cc1c[nH]cn1)[C@@H](C)O)[C@@H](C)O)C(C)C)C(=O)N[C@@H](C)C(=O)N[C@@H](Cc1c[nH]c2ccccc12)C(=O)N[C@@H](CC(C)C)C(=O)N[C@H](C(=O)N[C@@H](CCCNC(=N)N)C(=O)NCC(=O)N[C@@H](CCCNC(=N)N)C(=O)N[C@@H](CCCCNC(=O)COCCOCCNC(=O)COCCOCCNC(=O)CC[C@H](NC(=O)CCCCCCCCCOc1ccc(C(=O)O)cc1)C(=O)O)C(=O)O)C(C)C [Example B2.2] | 460 pM | 37 h | – | – | –
2 | CC[C@H](C)[C@H](NC)C(=O)N[C@H](C(=O)O[C@@H](Cc1c[nH]cn1)C(=O)N[C@@H](C)C(=O)N[C@@H](CCC(=O)O)C(=O)NCC(=O)N[C@H](C(=O)N[C@@H](Cc1ccccc1)C(=O)N[C@H](C(=O)N[C@@H](CO)C(=O)N[C@@H](CC(=O)O)C(=O)N[C@H](C(=O)N[C@@H](CO)C(=O)N[C@@H](CO)C(=O)N[C@@H](Cc1ccc(O)cc1)C(=O)N[C@@H](CC(C)C)C(=O)N[C@@H](CCC(=O)O)C(=O)NCC(=O)N[C@@H](CCC(N)=O)C(=O)N[C@@H](C)C(=O)N[C@@H](C)C(=O)N[C@@H](CCCCNC(=O)COCCOCCNC(=O)COCCOCCNC(=O)CC[C@H](NC(=O)CCCCCCCCCOc1ccc(C(=O)O)cc1)C(=O)O)C(=O)N[C@@H](CCC(=O)O)C(=O)N[C@@H](Cc1ccccc1)C(=O)N[C@H](C(=O)N[C@@H](C)C(=O)N[C@@H](Cc1c[nH]c2ccccc12)C(=O)N[C@@H](CC(C)C)C(=O)N[C@H](C(=O)N[C@@H](CCCNC(=N)N)C(=O)NCC(=O)N[C@@H](CCCNC(=N)N)C(=O)N[C@@H](CCCCNC(=O)COCCOCCNC(=O)COCCOCCNC(=O)CC[C@H](NC(=O)CCCCCCCCCOc1ccc(C(=O)O)cc1)C(=O)O)C(=O)O)C(C)C)[C@@H](C)CC)C(C)C)[C@@H](C)O)[C@@H](C)O)C(C)C [Example 4] | – | – | 58.9 h | 27.9 h | 68 h

Reference: US9452225B2, “GLP-1 prodrugs” (Novo Nordisk A/S, priority 2012, dated 2016)
